Data on 3 compounds can be found in patent publication US5225416A, “1,2,3,6-tetrahydropyridine derivatives useful for improving cerebral blood circulation” (Richter Gedeon Vegyeszeti Termekek Gyara Rt., priority 1990, dated 1993).

What all share (format): in vivo
Assay [1] has as its system male (CFLP LATI) mice. Kind of assay: Anoxic asphyxia (asphyxial anoxia), antihypoxic effect in mice. Conditions: Mus musculus, po, read-out: ED50 asphyxial anoxia. Here is the method: (§1) Male (CFLP LATI) mice weighing 24-26 g and male spontaneous hypertensive rats (SHR) weighing 160-180 g were used as test animals. The test compounds were administered orally in a volume of 10 ml/kg 1 hour before the test.
(§2) The mice were treated after 16 hours fasting with the oral dosage of the test compounds. 1 hour after the treatment the animals were placed to 100 ml sealed glasses and the survival time of the animals was measured. The groups consisting of 10 animals and treated with the test compounds were considered protected if the average survival time was by 30 percent longer than the survival of the group treated with placebo. From the percentage of the surviving animals the 50% effective dosage (ED50) was calculated by probit analysis.

Assay [2] relates to male (CFLP LATI) mice. Kind of assay: Cytotoxic hypoxia (KCN), antihypoxic effect in mice. The settings on record: Mus musculus, po, read-out: ED50 cytotoxic hypoxia.
The subject of assay [3] is male (CFLP LATI) mice. Kind of assay: Hypobaric hypoxia (HH), antihypoxic effect in mice. Conditions: Mus musculus, po, read-out: ED50 hypobaric hypoxia. The method, then: as §1
Animals surviving by 100% longer than the average survival of the control group were considered as protected.

Assay [4] concerns male spontaneous hypertensive rats (SHR). Kind of assay: Hypobaric hypoxia in SHR rats. The settings on record: Rattus norvegicus, po, 1 hour before the test, 22.66 kPa, protected = survival 30 percent longer, 95% fiducial limit on next line. The method, then: as §1
(§3) The rats were placed to a 6-liter exsiccator 1 hour after pretreatment to each exsiccator 2 rats were placed. The pressure was reduced in the exsiccator within 20 seconds to 22.66 kPa (170 Hgmm) and the survival time was measured from this time on until the last breathing movement. Animals which survived by 30 percent longer than the average survival of the control group were considered as protected. From the percentage of the protected animals the ED50 i.e. the 50% effective dosage was calculated by probit analysis with the pertaining 95% fiducial limit.

In assay [5] the test system is mice and spontaneous hypertensive rats. In words: Hypoxic models taken together (asphyxial anoxia, hypobaric hypoxia, cytotoxic hypoxia, hypobaric hypoxia SHR). Here is the method: as §1, §2
After 16 hours of fasting and 1 hour of pretreatment the animals were placed to a 6-liter exsiccator and the pressure was reduced within 20 seconds to 22.66 kPa (170 Hgmm), and from this time on the survival time was measured until the last breathing movement. Animals surviving by 100% longer than the average survival of the control group were considered as protected.
The animals were treated after 1 hour pretreatment with an i.v. dosage of 5 mg/kg potassium cyanide. The survival time was measured from the administration of potassium cyanide to the last breathing movement. The protected condition was determined according to the method described for anoxic asphyxia.
as §3
For testing the active ingredients various forms of hypoxia were used. In case of asphyxial anoxia the complete loss of the oxygen supply, at hypobaric hypoxia the reducing of the oxygen saturation condition of the haemoglobin and in case of cytotoxic hypoxia the blocking of the mytochondrial breathing enzime cause a functional disorganisation and necrosis of the cells, even death in otherwise healthy mice. The spontaneous hypertensive rats are more sensitive to the hypoxial influences than the normotensive animals as the survival chance of a person suffering from hypertension is also worse after suffering from hypoxial influences.

Setting [6] is: 1 hour before the test, mice, protected = survival 30 percent longer, probit analysis.
The mark [7] stands for this setting: 1 hour before the test, mice, KCN 5 mg/kg i.v., 95% fiducial limit on next line.
[8] abbreviates: 1 hour before the test, mice, 22.66 kPa, protected = survival 100% longer, 95% fiducial limit on next line.

With `OC(CCN1CC=C(c2ccccc2)CC1)c1ccc(Cc2ccc(Cl)cc2)cc1` (stereo not drawn) [Example 0207724], the ED50 with male (CFLP LATI) mice [1] (setting [6]) amounted to 50 mg/kg; with male (CFLP LATI) mice [2] (setting [7]), 17.5 mg/kg; in the assay on male (CFLP LATI) mice [3] (setting [8]) it was 27.5 mg/kg; in assay [4], 8.2 mg/kg.

With `NC(=O)CN1CCCC1=O` [Piracetam, 2-oxo-1-pyrrolidinyl-acetic amide], the ED50 with male (CFLP LATI) mice [1] was 100 mg/kg; with male (CFLP LATI) mice [2], 132 mg/kg; with male (CFLP LATI) mice [3], 100 mg/kg. For the same compound, the “dosage relative to that of vincamine” value in assay [5] (antihypoxic effect on two models) is 5-10 times. For the same compound, the antihypoxic effect result in assay [5] (number of models on which the effect could be proved) is recorded as “could be proved on two models”.

Turning to `CC[C@]12CCCN3CCc4c(n(c5ccccc45)[C@@](O)(C(=O)OC)C1)[C@@H]32` [Vincamin, (+)-14β-hydroxy-14α-methoxy-carbonyl-14,15-dihydro-eburnamenine], the ED50 is 51.1 mg/kg in the assay on male (CFLP LATI) mice [1] (setting [6]), 27 mg/kg in the assay on male (CFLP LATI) mice [2] (setting [7]), 60.7 mg/kg with male (CFLP LATI) mice [3] (setting [8]) and 27.9 mg/kg in assay [4]. Moreover, in assay [5] (all hypoxic models, in words), the “effect in all hypoxic models used” value was “effective”. Besides, in assay [5] (all hypoxic models, in words), the “survival time of the animals” value is listed as “prolonged”.

In general, ED50 refers to the midpoint of the dose-response relation.
